Source: patent publication US8653041B2, “Antibacterial aminoglycoside analogs” (Achaogen, Inc., priority 2010, dated 2014)

Columns and labels:
Pseudomonas aeruginosa = experiment: MIC, CLSI broth microdilution, Pseudomonas aeruginosa panel; assay type: cell-based
Method in brief: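 Reference CLSI broth microdilution: two-fold compound dilutions in Mueller Hinton Broth, mixed 1:1 with inoculum to final 5×10^5 CFU/mL. Incubated 20 h at 35 C in ambient air. Panel of 27 isolates: 22 clinical strains carrying aminoglycoside-modifying enzymes or perm/efflux resistance, 5 susceptible.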

Acinetobacter baumannii = experiment: MIC, CLSI broth microdilution, Acinetobacter baumannii panel; assay type: cell-based
Method in brief: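 CLSI M7-A7 broth microdilution in Mueller Hinton Broth, inoculum 5×10^5 CFU/mL, 20 h at 35 C in ambient air. Panel of 29 A. baumannii isolates, 24 clinical carrying aminoglycoside-modifying enzymes or perm/efflux mechanisms and 5 susceptible.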

[1] = 14-day rat toxicology (nephrotoxicity), once-daily subcutaneous injection; conditions: once daily, 14 days, Sprague-Dawley rat
Procedure: The study design utilized once-daily subcutaneous injection administration to the rat for 14 days and assessment of reversibility of any changes following a 28-day recovery period.
The dose volume administered to each animal was 1 mL/kg.

In the case of gentamicin, the MIC (Pseudomonas aeruginosa; P. aeruginosa clinical strain 1 (resistant clinical isolate)) is reported as “D (MIC's greater than or equal to 16.0 μg/mL and lower than 32 μg/mL = D)”, the MIC (Pseudomonas aeruginosa; P. aeruginosa clinical strain 2 (resistant clinical isolate)) is reported as “E (MIC's greater than or equal to 32.0 μg/mL = E)” and the MIC (Pseudomonas aeruginosa; P. aeruginosa clinical strain 3 (resistant clinical isolate)) is reported as “E (MIC's greater than or equal to 32.0 μg/mL = E)”. For the same substance, the MIC (Pseudomonas aeruginosa; P. aeruginosa clinical strain 4 (resistant clinical isolate)) was “E (MIC's greater than or equal to 32.0 μg/mL = E)”, the MIC (Pseudomonas aeruginosa; P. aeruginosa clinical strain 5 (resistant clinical isolate)) was “E (MIC's greater than or equal to 32.0 μg/mL = E)” and the MIC (Pseudomonas aeruginosa; P. aeruginosa clinical strain 6 (resistant clinical isolate)) was “E (MIC's greater than or equal to 32.0 μg/mL = E)”. For the same substance, the MIC (Pseudomonas aeruginosa; P. aeruginosa clinical strain 7 (resistant clinical isolate)) was “E (MIC's greater than or equal to 32.0 μg/mL = E)”, the MIC (Pseudomonas aeruginosa; P. aeruginosa clinical strain 8 (resistant clinical isolate)) was “E (MIC's greater than or equal to 32.0 μg/mL = E)” and the MIC (Pseudomonas aeruginosa; P. aeruginosa clinical strain 9 (resistant clinical isolate)) was “E (MIC's greater than or equal to 32.0 μg/mL = E)”. For the same substance, the MIC (Pseudomonas aeruginosa; P. aeruginosa clinical strain 10 (resistant clinical isolate)) was “E (MIC's greater than or equal to 32.0 μg/mL = E)”, the MIC (Pseudomonas aeruginosa; P. aeruginosa clinical strain 11 (resistant clinical isolate)) was “D (MIC's greater than or equal to 16.0 μg/mL and lower than 32 μg/mL = D)” and the MIC (Pseudomonas aeruginosa; P. aeruginosa clinical strain 12 (resistant clinical isolate)) was “E (MIC's greater than or equal to 32.0 μg/mL = E)”. For the same substance, the MIC (Pseudomonas aeruginosa; P. aeruginosa clinical strain 13 (resistant clinical isolate)) was “E (MIC's greater than or equal to 32.0 μg/mL = E)”, the MIC (Pseudomonas aeruginosa; P. aeruginosa clinical strain 14 (resistant clinical isolate)) was “E (MIC's greater than or equal to 32.0 μg/mL = E)” and the MIC (Pseudomonas aeruginosa; P. aeruginosa clinical strain 15 (resistant clinical isolate)) was “E (MIC's greater than or equal to 32.0 μg/mL = E)”. The MIC (Pseudomonas aeruginosa; P. aeruginosa clinical strain 16 (resistant clinical isolate)) was “E (MIC's greater than or equal to 32.0 μg/mL = E)”, the MIC (Pseudomonas aeruginosa; P. aeruginosa clinical strain 17 (resistant clinical isolate)) was “E (MIC's greater than or equal to 32.0 μg/mL = E)” and the MIC (Pseudomonas aeruginosa; P. aeruginosa clinical strain 18 (resistant clinical isolate)) was “E (MIC's greater than or equal to 32.0 μg/mL = E)”. For the same substance, the MIC (Pseudomonas aeruginosa; P. aeruginosa clinical strain 19 (resistant clinical isolate)) was “E (MIC's greater than or equal to 32.0 μg/mL = E)”, the MIC (Pseudomonas aeruginosa; P. aeruginosa clinical strain 20 (resistant clinical isolate)) was “C (MIC's greater than or equal to 8 μg/mL and lower than 16.0 μg/mL = C)” and the MIC (Pseudomonas aeruginosa; P. aeruginosa clinical strain 21 (resistant clinical isolate)) was “C (MIC's greater than or equal to 8 μg/mL and lower than 16.0 μg/mL = C)”. The MIC (Pseudomonas aeruginosa; P. aeruginosa clinical strain 22 (resistant clinical isolate)) was “B (MIC's of greater than 1.0 μg/mL and lower than 8 μg/mL = B)”, the MIC (Pseudomonas aeruginosa; P. aeruginosa strain 23 (susceptible)) was “A (MIC's of 1.0 μg/mL or less = A)” and the MIC (Pseudomonas aeruginosa; P. aeruginosa strain 24 (susceptible)) was “B (MIC's of greater than 1.0 μg/mL and lower than 8 μg/mL = B)”. The MIC (Pseudomonas aeruginosa; P. aeruginosa strain 25 (susceptible)) was “A (MIC's of 1.0 μg/mL or less = A)”, the MIC (Pseudomonas aeruginosa; P. aeruginosa strain 26 (susceptible)) was “A (MIC's of 1.0 μg/mL or less = A)” and the MIC (Pseudomonas aeruginosa; P. aeruginosa strain 27 (susceptible)) was “A (MIC's of 1.0 μg/mL or less = A)”. The MIC (Acinetobacter baumannii; A. baumannii clinical strain 1 (resistant clinical isolate)) was “E (MIC's greater than or equal to 32.0 μg/mL = E)”, the MIC (Acinetobacter baumannii; A. baumannii clinical strain 2 (resistant clinical isolate)) was “E (MIC's greater than or equal to 32.0 μg/mL = E)” and the MIC (Acinetobacter baumannii; A. baumannii clinical strain 3 (resistant clinical isolate)) was “C (MIC's greater than or equal to 8 μg/mL and lower than 16.0 μg/mL = C)”. For the same substance, the MIC (Acinetobacter baumannii; A. baumannii clinical strain 4 (resistant clinical isolate)) was “E (MIC's greater than or equal to 32.0 μg/mL = E)”, the MIC (Acinetobacter baumannii; A. baumannii clinical strain 5 (resistant clinical isolate)) was “E (MIC's greater than or equal to 32.0 μg/mL = E)” and the MIC (Acinetobacter baumannii; A. baumannii clinical strain 6 (resistant clinical isolate)) was “E (MIC's greater than or equal to 32.0 μg/mL = E)”. The MIC (Acinetobacter baumannii; A. baumannii clinical strain 7 (resistant clinical isolate)) was “E (MIC's greater than or equal to 32.0 μg/mL = E)”, the MIC (Acinetobacter baumannii; A. baumannii clinical strain 8 (resistant clinical isolate)) was “E (MIC's greater than or equal to 32.0 μg/mL = E)” and the MIC (Acinetobacter baumannii; A. baumannii clinical strain 9 (resistant clinical isolate)) was “E (MIC's greater than or equal to 32.0 μg/mL = E)”. For the same substance, the MIC (Acinetobacter baumannii; A. baumannii clinical strain 10 (resistant clinical isolate)) was “E (MIC's greater than or equal to 32.0 μg/mL = E)”, the MIC (Acinetobacter baumannii; A. baumannii clinical strain 11 (resistant clinical isolate)) was “E (MIC's greater than or equal to 32.0 μg/mL = E)” and the MIC (Acinetobacter baumannii; A. baumannii clinical strain 12 (resistant clinical isolate)) was “E (MIC's greater than or equal to 32.0 μg/mL = E)”. For the same substance, the MIC (Acinetobacter baumannii; A. baumannii clinical strain 13 (resistant clinical isolate)) was “A (MIC's of 1.0 μg/mL or less = A)”, the MIC (Acinetobacter baumannii; A. baumannii clinical strain 14 (resistant clinical isolate)) was “B (MIC's of greater than 1.0 μg/mL and lower than 8 μg/mL = B)” and the MIC (Acinetobacter baumannii; A. baumannii clinical strain 15 (resistant clinical isolate)) was “A (MIC's of 1.0 μg/mL or less = A)”. The MIC (Acinetobacter baumannii; A. baumannii clinical strain 16 (resistant clinical isolate)) was “B (MIC's of greater than 1.0 μg/mL and lower than 8 μg/mL = B)”, the MIC (Acinetobacter baumannii; A. baumannii clinical strain 17 (resistant clinical isolate)) was “E (MIC's greater than or equal to 32.0 μg/mL = E)” and the MIC (Acinetobacter baumannii; A. baumannii clinical strain 18 (resistant clinical isolate)) was “E (MIC's greater than or equal to 32.0 μg/mL = E)”. For the same substance, the MIC (Acinetobacter baumannii; A. baumannii clinical strain 19 (resistant clinical isolate)) was “B (MIC's of greater than 1.0 μg/mL and lower than 8 μg/mL = B)”, the MIC (Acinetobacter baumannii; A. baumannii clinical strain 20 (resistant clinical isolate)) was “C (MIC's greater than or equal to 8 μg/mL and lower than 16.0 μg/mL = C)” and the MIC (Acinetobacter baumannii; A. baumannii clinical strain 21 (resistant clinical isolate)) was “E (MIC's greater than or equal to 32.0 μg/mL = E)”. The MIC (Acinetobacter baumannii; A. baumannii clinical strain 22 (resistant clinical isolate)) was “E (MIC's greater than or equal to 32.0 μg/mL = E)”, the MIC (Acinetobacter baumannii; A. baumannii clinical strain 23 (resistant clinical isolate)) was “E (MIC's greater than or equal to 32.0 μg/mL = E)” and the MIC (Acinetobacter baumannii; A. baumannii clinical strain 24 (resistant clinical isolate)) was “E (MIC's greater than or equal to 32.0 μg/mL = E)”. The MIC (Acinetobacter baumannii; A. baumannii strain 25 (susceptible)) was “A (MIC's of 1.0 μg/mL or less = A)”, the MIC (Acinetobacter baumannii; A. baumannii strain 26 (susceptible)) was “A (MIC's of 1.0 μg/mL or less = A)” and the MIC (Acinetobacter baumannii; A. baumannii strain 27 (susceptible)) was “A (MIC's of 1.0 μg/mL or less = A)”. The MIC (Acinetobacter baumannii; A. baumannii strain 28 (susceptible)) was “A (MIC's of 1.0 μg/mL or less = A)”, the MIC (Acinetobacter baumannii; A. baumannii strain 29 (susceptible)) was “A (MIC's of 1.0 μg/mL or less = A)” and the mortality and morbidity ([1]; 100 mg/kg/day subcutaneous) was “resulted in mortality and morbidity at 100 mg/kg/day due to nephrotoxicity”. For the same substance, the “macroscopic and microscopic changes in the kidneys” value ([1]; all dose levels (10, 30 or 100 mg/kg/day) subcutaneous) was “observed at all dose levels”.
